Earlier results as cited in patent US20140248600A1, “BLOOD TREATMENT APPARATUS ADAPTED TO PRESERVE PARTS THEREOF” (Gambro Lundia AB, priority 2011, published 2014).

Tested on: C. albicans
Conditions: resulting pH: acetic acid 3.6; citric acid 2.4; succinic acid 2.8; tartaric acid 2.3; fumaric acid 2.6; maleic acid 2.0; control pH 5.5

Row | SMILES | Growth of C. albicans with acid added to the medium
1 | CC(=O)O [acetic acid] | grew as well as the control
2 | O=C(O)CC(O)(CC(=O)O)C(=O)O [citric acid] | grew as well as the control
3 | O=C(O)/C=C/C(=O)O [fumaric] | inhibition of growth
4 | O=C(O)/C=C\C(=O)O [maleic acid] | inhibition of growth
5 | O=C(O)CCC(=O)O [succinic acid] | grew as well as the control
6 | O=C(O)C(O)C(O)C(=O)O (stereo not drawn) [tartaric acid] | grew as well as the control
